In article PMC4579270, “Identification and Characterization of an Irreversible Inhibitor of CDK2” (Chemistry & Biology, 2015):

System: AMPK (hum)
Assay: Dundee kinase screen re-test (standard format and 4 hour pre-incubation)
Type: biochemical, human
Protocol: Prior to determining its cellular activity, we carried out a screen to assess its selectivity against a panel of 131 protein kinases under conditions that would not distinguish between a reversible or irreversible mode of action. […] These 13 kinases and 29 additional kinases, selected for their known sensitivity to other inhibitors within the purine series, were then tested in a modified screening format in which the assay was repeated following a 4-hr pre-incubation (Table S3B). […] However, conformational flexibility around the active site may promote such an interaction with a residue from another part of the structure ([Martin et al., 2012]).
Table S3, Related to Figure 4. NCL-0006300 protein kinase selectivity. […]
Dundee protein kinase screen (Bain et al., 2007). […]
(B) Selected kinases were re-tested in the Dundee kinase screen against NU6300 at a single concentration of 0.5 µM both in the standard assay format and following a 4 hour pre-incubation in the presence of NU6300. Kinases which have very low activity after the 4 hour incubation so that results might not be wholly reliable are boxed in salmon. Kinases where the activity after a 4 hour pre-incubation is < 50% that in the standard assay format are highlighted in red.

C=CS(=O)(=O)c1ccc(Nc2nc(OCC3CCCCC3)c3nc[nH]c3n2)cc1 [NU6300, 6-(cyclohexylmethoxy)-N-(4-(vinylsulfonyl)phenyl)-9H-purin-2-amine]
%Remaining activity at 0.5µM NU6300 - 4hr RT preincubation (4hr RT preincubation): 73% | %Remaining activity at 0.5µM NU6300 - Usual assay format (usual format): 70%
